From US11655235B2, “Pyrrolidine and piperidine compounds” (YUHAN CORPORATION, priority 2019, dated 2023) come the findings set out here.

What all share (assay type): biochemical
In one test the target is T1, Recombinant human FAP (Homo sapiens, UniProt Q12884).
T1 construct: purchased R&D systems
T1 sequence (Q12884 1-760): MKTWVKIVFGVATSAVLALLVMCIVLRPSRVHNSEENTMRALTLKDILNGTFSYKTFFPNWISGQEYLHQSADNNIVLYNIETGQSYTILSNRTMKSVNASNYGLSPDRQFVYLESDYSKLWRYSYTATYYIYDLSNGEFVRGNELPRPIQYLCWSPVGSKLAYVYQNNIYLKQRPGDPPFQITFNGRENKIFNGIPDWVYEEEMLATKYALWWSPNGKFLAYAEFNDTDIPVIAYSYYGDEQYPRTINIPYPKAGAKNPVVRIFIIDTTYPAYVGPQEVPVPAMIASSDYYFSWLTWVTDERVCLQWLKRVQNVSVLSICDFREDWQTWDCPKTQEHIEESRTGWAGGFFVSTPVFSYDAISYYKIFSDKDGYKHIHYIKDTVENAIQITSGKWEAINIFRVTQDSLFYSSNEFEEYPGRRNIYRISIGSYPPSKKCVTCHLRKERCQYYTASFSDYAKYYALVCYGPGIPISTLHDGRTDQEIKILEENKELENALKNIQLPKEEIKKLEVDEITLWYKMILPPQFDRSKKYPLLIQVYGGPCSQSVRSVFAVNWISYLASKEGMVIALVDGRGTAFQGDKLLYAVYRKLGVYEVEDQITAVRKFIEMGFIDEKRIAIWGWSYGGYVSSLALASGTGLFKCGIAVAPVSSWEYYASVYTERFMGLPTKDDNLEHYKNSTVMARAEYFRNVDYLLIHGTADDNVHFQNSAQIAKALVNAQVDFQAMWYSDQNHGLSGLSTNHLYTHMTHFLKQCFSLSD
Kind of test: FAP inhibition, fluorogenic substrate Z-Gly-Pro-AMC. To be noted: 25° C., Z-Gly-Pro-AMC substrate. In outline:
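Recombinant human FAP, 10 ng per reaction, in 50 mM Tris pH 7.5 with 1 M NaCl and 1 mg/ml BSA at 25° C; substrate Z-Gly-Pro-AMC, ≤0.1% DMSO. AMC fluorescence read at ex 380/em 460 nm; % signal-rate decrease vs no-inhibitor control, 8-point curves fitted to a four-parameter logistic for IC50.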

In a further test the target is T2, recombinant human DPP7 (Homo sapiens, UniProt Q9UHL4).
T2 construct: purchased R&D Systems
Kind of test: DPP7 inhibition, fluorogenic substrate Lys-Pro-AMC. In outline:
(§1)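 Enzyme per reaction: 50 ng DPP9, 20 ng DPP8, 10 ng each DPP7 and PREP. Compounds were serially diluted (8 points, up to 0.5% DMSO) and incubated at 25 °C.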

Another test addresses T3, recombinant human DPP8 (Homo sapiens, UniProt Q6V1X1).
T3 construct: purchased PBS Bioscience
Kind of test: DPP8 inhibition, fluorogenic substrate Z-Ala-Pro-AMC. To be noted: 25° C., Z-Ala-Pro-AMC substrate. In outline:
as §1

Another test addresses T4, recombinant human DPP9 (Homo sapiens, UniProt Q86TI2).
T4 construct: purchased R&D Systems
Nature of the test: DPP9 inhibition, fluorogenic substrate H-Gly-Pro-AMC. The following applies: 25° C., H-Gly-Pro-AMC substrate. In outline: as §1

For a further test, the target named is T5, recombinant human PREP (Homo sapiens, UniProt P48147).
T5 construct: purchased R&D System
T5 sequence (P48147 1-710): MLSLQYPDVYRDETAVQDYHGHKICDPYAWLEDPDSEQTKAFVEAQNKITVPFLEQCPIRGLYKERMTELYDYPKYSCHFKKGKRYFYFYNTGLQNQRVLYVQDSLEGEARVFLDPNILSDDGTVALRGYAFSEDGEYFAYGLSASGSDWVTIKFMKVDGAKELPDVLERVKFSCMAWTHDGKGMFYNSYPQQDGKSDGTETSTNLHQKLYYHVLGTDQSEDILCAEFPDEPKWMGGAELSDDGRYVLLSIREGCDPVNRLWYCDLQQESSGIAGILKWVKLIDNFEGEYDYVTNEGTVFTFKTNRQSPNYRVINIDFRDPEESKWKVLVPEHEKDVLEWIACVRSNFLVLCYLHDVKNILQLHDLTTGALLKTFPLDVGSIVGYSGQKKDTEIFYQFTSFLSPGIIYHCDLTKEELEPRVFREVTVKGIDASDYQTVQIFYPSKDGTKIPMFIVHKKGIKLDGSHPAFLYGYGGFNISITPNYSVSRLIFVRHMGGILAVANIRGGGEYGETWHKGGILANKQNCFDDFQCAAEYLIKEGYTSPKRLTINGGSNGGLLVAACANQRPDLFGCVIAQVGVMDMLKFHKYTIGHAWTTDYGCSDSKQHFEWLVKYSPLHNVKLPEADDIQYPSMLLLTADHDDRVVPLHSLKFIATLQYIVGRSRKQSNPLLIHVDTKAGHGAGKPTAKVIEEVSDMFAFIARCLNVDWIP
Kind of test: PREP inhibition, fluorogenic substrate Z-Gly-Pro-AMC. The following applies: Inhibitory Activity (IC50, nM) PREP, 25° C., Z-Gly-Pro-AMC substrate. Put shortly: as §1

The next test addresses DPP4 (Homo sapiens, UniProt P27487). Nature of the test: DPP4 inhibition, fluorogenic substrate H-Gly-Pro-AMC. The following applies: for inhibition at 1 µM: read-out: hDPP4 inhibition % at 1 μM; for IC50: 25° C., H-Gly-Pro-AMC substrate. Also noted: purchased R&D Systems.

Chain of DPP4 (P27487 whole entry): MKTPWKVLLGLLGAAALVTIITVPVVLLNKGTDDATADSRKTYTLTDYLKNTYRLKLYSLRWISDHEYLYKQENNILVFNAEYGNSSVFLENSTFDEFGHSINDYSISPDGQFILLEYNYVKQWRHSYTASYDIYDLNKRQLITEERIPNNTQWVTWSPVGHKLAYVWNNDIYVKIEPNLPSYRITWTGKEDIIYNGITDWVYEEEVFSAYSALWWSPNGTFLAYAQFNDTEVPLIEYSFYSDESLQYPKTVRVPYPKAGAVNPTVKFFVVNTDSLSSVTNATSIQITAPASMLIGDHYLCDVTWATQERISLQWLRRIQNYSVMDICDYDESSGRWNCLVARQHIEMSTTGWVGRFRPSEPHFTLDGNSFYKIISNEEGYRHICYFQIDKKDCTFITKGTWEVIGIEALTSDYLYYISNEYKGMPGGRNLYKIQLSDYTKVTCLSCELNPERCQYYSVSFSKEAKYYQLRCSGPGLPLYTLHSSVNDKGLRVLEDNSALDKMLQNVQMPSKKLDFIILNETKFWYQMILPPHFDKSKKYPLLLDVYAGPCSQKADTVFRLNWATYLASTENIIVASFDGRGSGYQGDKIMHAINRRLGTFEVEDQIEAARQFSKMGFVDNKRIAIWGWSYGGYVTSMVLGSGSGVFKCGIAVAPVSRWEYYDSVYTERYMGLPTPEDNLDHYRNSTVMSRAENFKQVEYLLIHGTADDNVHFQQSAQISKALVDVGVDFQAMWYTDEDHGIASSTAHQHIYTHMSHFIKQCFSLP
T3 sequence (Q6V1X1 whole entry): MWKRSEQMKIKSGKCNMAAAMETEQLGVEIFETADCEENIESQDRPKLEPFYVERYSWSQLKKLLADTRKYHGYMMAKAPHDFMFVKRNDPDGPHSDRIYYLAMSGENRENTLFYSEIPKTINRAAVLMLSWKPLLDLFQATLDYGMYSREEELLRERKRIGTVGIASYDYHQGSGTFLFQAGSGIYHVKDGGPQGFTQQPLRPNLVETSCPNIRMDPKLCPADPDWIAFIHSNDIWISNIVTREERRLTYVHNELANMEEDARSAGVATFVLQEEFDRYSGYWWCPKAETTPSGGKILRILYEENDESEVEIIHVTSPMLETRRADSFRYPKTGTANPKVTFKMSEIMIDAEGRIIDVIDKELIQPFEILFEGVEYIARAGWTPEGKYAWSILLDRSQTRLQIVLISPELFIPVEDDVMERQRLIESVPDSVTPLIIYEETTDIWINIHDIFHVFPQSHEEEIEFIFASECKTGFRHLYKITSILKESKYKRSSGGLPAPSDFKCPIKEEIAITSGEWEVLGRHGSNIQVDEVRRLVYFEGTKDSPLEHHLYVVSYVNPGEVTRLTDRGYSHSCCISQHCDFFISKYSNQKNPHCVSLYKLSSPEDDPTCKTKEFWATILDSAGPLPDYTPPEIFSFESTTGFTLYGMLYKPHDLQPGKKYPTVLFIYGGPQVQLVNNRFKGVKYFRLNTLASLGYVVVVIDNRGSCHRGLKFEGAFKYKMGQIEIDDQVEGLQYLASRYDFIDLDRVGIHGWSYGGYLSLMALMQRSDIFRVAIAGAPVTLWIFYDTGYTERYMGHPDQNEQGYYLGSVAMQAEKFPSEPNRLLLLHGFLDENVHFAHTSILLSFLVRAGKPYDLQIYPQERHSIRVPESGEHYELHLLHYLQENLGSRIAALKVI
T4 sequence (Q86TI2 whole entry): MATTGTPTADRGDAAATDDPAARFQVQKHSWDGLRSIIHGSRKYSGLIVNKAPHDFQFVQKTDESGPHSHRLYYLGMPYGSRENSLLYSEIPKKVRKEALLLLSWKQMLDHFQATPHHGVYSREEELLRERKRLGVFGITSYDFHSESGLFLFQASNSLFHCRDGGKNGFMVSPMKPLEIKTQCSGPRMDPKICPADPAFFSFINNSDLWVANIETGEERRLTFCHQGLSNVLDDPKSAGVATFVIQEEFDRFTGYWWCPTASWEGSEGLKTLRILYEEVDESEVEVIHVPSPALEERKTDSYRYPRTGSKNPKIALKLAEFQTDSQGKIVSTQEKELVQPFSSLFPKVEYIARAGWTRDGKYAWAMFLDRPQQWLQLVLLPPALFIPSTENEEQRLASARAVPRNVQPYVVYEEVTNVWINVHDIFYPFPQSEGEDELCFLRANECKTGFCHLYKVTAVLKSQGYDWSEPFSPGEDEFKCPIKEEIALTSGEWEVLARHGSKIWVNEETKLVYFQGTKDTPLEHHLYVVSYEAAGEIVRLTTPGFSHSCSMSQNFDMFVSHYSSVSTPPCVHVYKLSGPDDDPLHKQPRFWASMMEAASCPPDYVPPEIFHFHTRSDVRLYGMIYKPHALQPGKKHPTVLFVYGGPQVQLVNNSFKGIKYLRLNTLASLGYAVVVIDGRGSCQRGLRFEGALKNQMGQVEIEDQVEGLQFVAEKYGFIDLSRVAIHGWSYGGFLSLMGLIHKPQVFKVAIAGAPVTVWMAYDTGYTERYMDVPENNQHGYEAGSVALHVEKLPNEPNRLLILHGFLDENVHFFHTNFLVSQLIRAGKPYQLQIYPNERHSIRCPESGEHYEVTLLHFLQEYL

For the compound `N#C[C@@H]1CCCN1C(=O)CN1CC[C@H](NC(=O)c2coc3cc(F)ccc23)C1` [Example 44, N—((S)-1-(2-((S)-2-cyanopyrrolidin-1-yl)-2-oxoethyl)pyrrolidin-3-yl)-6-fluorobenzofuran-3-carboxamide], the IC50 at Recombinant human FAP is 0.00507 µM; at recombinant human DPP7 it was 1.72 µM; at recombinant human DPP8 it was 46.2 µM; on recombinant human DPP9, greater than 100 µM; on recombinant human PREP, 12100 nM. Also, at DPP4, the inhibition at 1 µM worked out at 1.4%.
With `N#C[C@@H]1CCCN1C(=O)CN1CC[C@H](NC(=O)c2coc3cccc(O)c23)C1` [Example 48, N—((S)-1-(2-((S)-2-cyanopyrrolidin-1-yl)-2-oxoethyl)pyrrolidin-3-yl)-4-hydroxybenzofuran-3-carboxamide], the IC50 is 0.00223 µM at Recombinant human FAP; 0.762 µM on recombinant human DPP7; 12 µM at recombinant human DPP8; greater than 100 µM at recombinant human DPP9; 6750 nM on recombinant human PREP. Also, the inhibition at 1 µM at DPP4 came to 3.6%.
`N#C[C@@H]1CCCN1C(=O)CN1CC[C@H](NC(=O)c2coc3cc(O)ccc23)C1` [Example 49, N—((S)-1-(2-((S)-2-cyanopyrrolidin-1-yl)-2-oxoethyl)pyrrolidin-3-yl)-6-hydroxybenzofuran-3-carboxamide]: the IC50 at Recombinant human FAP was 0.00442 µM; at recombinant human DPP7, 4.37 µM; at recombinant human DPP8 it was 12.3 µM; on recombinant human DPP9 it was 92.6 µM; at recombinant human PREP, 8360 nM. In addition, at DPP4, the inhibition at 1 µM worked out at 0.6%.
Regarding `N#C[C@@H]1CCCN1C(=O)CN1CC[C@H](NC(=O)c2coc3c(F)cc(F)cc23)C1` [Example 51, N—((S)-1-(2-((S)-2-cyanopyrrolidin-1-yl)-2-oxoethyl)pyrrolidin-3-yl)-5,7-difluorobenzofuran-3-carboxamide], the IC50 at Recombinant human FAP was 0.0109 µM; on recombinant human DPP7, 3.32 µM; on recombinant human DPP8 it was 38.9 µM; at recombinant human DPP9, greater than 100 µM; on recombinant human PREP it was 13400 nM. The inhibition at 1 µM on DPP4 stood at 0.6%.
With `COc1ccc2c(C(=O)N[C@H]3CCN(CC(=O)N4CCC[C@H]4C#N)C3)coc2c1` [Example 54, N—((S)-1-(2-((S)-2-cyanopyrrolidin-1-yl)-2-oxoethyl)pyrrolidin-3-yl)-6-methoxybenzofuran-3-carboxamide], the IC50 is 0.00848 µM at Recombinant human FAP; 2.39 µM at recombinant human DPP7; 23.2 µM on recombinant human DPP8; greater than 100 µM at recombinant human DPP9; 5500 nM on recombinant human PREP. Also, the inhibition at 1 µM on DPP4 came to 2%.
For `N#C[C@@H]1CCCN1C(=O)CN1CC[C@H](NC(=O)c2ccc3ccoc3c2)C1` [Example 57, N—((S)-1-(2-((S)-2-cyanopyrrolidin-1-yl)-2-oxoethyl)pyrrolidin-3-yl)benzofuran-6-carboxamide], the IC50 came to 0.0251 µM on Recombinant human FAP; 0.499 µM on recombinant human DPP7; 6 µM at recombinant human DPP8; 26.5 µM on recombinant human DPP9; 10200 nM on recombinant human PREP. Also, the inhibition at 1 µM at DPP4 is 0.6%.
As for `N#C[C@@H]1CCCN1C(=O)CN1CC[C@H](Oc2cccc3cccnc23)C1` [Example 64, (S)-1-(2-((S)-3-(quinolin-8-yloxy)pyrrolidin-1-yl)acetyl)pyrrolidine-2-carbonitrile], the IC50 was 0.019 µM on Recombinant human FAP; 3.56 µM on recombinant human DPP7; greater than 100 µM at recombinant human DPP8; 15.7 µM on recombinant human DPP9; 84000 nM on recombinant human PREP; greater than 1 µM at DPP4.
Consider `N#C[C@@H]1CCCN1C(=O)CN1CC[C@H](Oc2cccc3cnccc23)C1` [Example 65, (S)-1-(2-((S)-3-(isoquinolin-5-yloxy)pyrrolidin-1-yl)acetyl)pyrrolidine-2-carbonitrile], for which the half-inhibitory concentration (IC50) at Recombinant human FAP was 0.00677 µM; at recombinant human DPP7, 3.4 µM; on recombinant human DPP8, greater than 100 µM; on recombinant human DPP9, 70.6 µM; at recombinant human PREP, 85700 nM; against DPP4, greater than 1 µM.
Turning to `N#C[C@@H]1CCCN1C(=O)CN1CC[C@H](Oc2ncnc3sccc23)C1` [Example 68, (S)-1-(2-((S)-3-(thieno[2,3-d]pyrimidin-4-yloxy)pyrrolidin-1-yl)acetyl)pyrrolidine-2-carbonitrile], the IC50 on Recombinant human FAP was 0.00796 µM; at recombinant human DPP7, 3.73 µM; at recombinant human DPP8, greater than 100 µM; at recombinant human DPP9 it was greater than 100 µM; on recombinant human PREP it was greater than 100000 nM; against DPP4, greater than 1 µM.
Take `N#C[C@@H]1CCCN1C(=O)CN1CC[C@H](Oc2cccc3[nH]c(=O)ccc23)C1` [Example 75, (S)-1-(2-((S)-3-((2-oxo-1,2-dihydroquinolin-5-yl)oxy)pyrrolidin-1-yl)acetyl)pyrrolidine-2-carbonitrile]: the IC50 on Recombinant human FAP is 0.00984 µM; on recombinant human DPP7, 0.814 µM; at recombinant human DPP8, 93.2 µM; on recombinant human DPP9, greater than 100 µM; at recombinant human PREP it was 5250 nM; at DPP4 it was greater than 1 µM.
Take `N#C[C@@H]1CCCN1C(=O)CN1CC[C@H](Oc2ccc(Cl)c3cccnc23)C1` [Example 81, (S)-1-(2-((S)-3-((5-chloroquinolin-8-yl)oxy)pyrrolidin-1-yl)acetyl)pyrrolidine-2-carbonitrile]: the IC50 on Recombinant human FAP was 0.0076 µM; on recombinant human DPP7 it was 5.94 µM; on recombinant human DPP8 it was 27.4 µM; at recombinant human DPP9, 84.9 µM; on recombinant human PREP, 3930 nM; against DPP4, greater than 1 µM.
For `COc1ccc2nccc(O[C@H]3CCN(CC(=O)N4CCC[C@H]4C#N)C3)c2c1` [Example 84, (S)-1-(2-((S)-3-((6-methoxyquinolin-4-yl)oxy)pyrrolidin-1-yl)acetyl)pyrrolidine-2-carbonitrile], the IC50 at Recombinant human FAP was 0.001 µM; on recombinant human DPP7, 9.46 µM; on recombinant human DPP8, greater than 100 µM; on recombinant human DPP9, greater than 100 µM; on recombinant human PREP, 5400 nM; on DPP4, greater than 1 µM.
Regarding `COc1ccc2c(O[C@H]3CCN(CC(=O)N4CCC[C@H]4C#N)C3)ccnc2c1` [Example 100, (S)-1-(2-((S)-3-((7-methoxyquinolin-4-yl)oxy)pyrrolidin-1-yl)acetyl)pyrrolidine-2-carbonitrile], the half-inhibitory concentration (IC50) at Recombinant human FAP is 0.0135 µM; at recombinant human DPP7, 1.15 µM; at recombinant human DPP8, 73.8 µM; on recombinant human DPP9, greater than 100 µM; at recombinant human PREP, 2490 nM; against DPP4, greater than 1 µM.
With `COc1cc2nccc(O[C@H]3CCN(CC(=O)N4CCC[C@H]4C#N)C3)c2cc1OC` [Example 101, (S)-1-(2-((S)-3-((6,7-dimethoxyquinolin-4-yl)oxy)pyrrolidin-1-yl)acetyl)pyrrolidine-2-carbonitrile], the IC50 at Recombinant human FAP was 0.00057 µM; on recombinant human DPP7 it was 0.626 µM; on recombinant human DPP8 it was greater than 100 µM; on recombinant human DPP9 it was greater than 100 µM; at recombinant human PREP, 3020 nM; against DPP4, greater than 1 µM.

Usually IC50 stands for the concentration at which inhibition is half-maximal. What is called inhibition is the percentage by which the read-out fell short of the control.
